Earlier results, collected in PMC10846240, “Pharmacokinetic/pharmacodynamic integration of amphenmulin: a novel pleuromutilin derivative against Mycoplasma gallisepticum” (Microbiology Spectrum, 2023).
In brackets after ≈: the same amount, converted by molar mass.

Legend:
Streptococcus pneumoniae = system: Streptococcus pneumoniae; parameters: method as in PMID 30019769; settings: neutropenic murine thigh and lung infection model; cited from earlier work
Staphylococcus aureus = system: Staphylococcus aureus; parameters: method as in PMID 30019769; settings: neutropenic murine thigh and lung infection model; cited from earlier work
[1] = parameters: method as in PMID 26747098; settings: after intravenous injection; cited from earlier work
[2] = system: M. gallisepticum S6 strain; parameters: method as in PMID 27656647; settings: same strain (S6); cited from earlier work
M. gallisepticum = system: M. gallisepticum; parameters: method as in PMID 27656647, PMID 25845865; settings: intratracheal infection model; cited from earlier work

SMILES	character of activity (Streptococcus pneumoniae)	character of activity (Staphylococcus aureus)	free drug concentration in pulmonary epithelial lining fluid relative to plasma [1]	MIC [2]	optimized therapeutic dosages (M. gallisepticum)	parameter most relevant to anti-mycoplasma effect (M. gallisepticum)
C=C[C@]1(C)C[C@@H](OC(=O)CS[C@@H]2CC[C@@H](N)C[C@H]2O)[C@]2(C)[C@H](C)CC[C@]3(CCC(=O)[C@H]32)[C@@H](C)[C@@H]1O [lefamulin]	time- and concentration-dependent activity	time- and concentration-dependent activity	5.7 times			
C=C[C@]1(C)C[C@@H](OC(=O)CSCCN(CC)CC)[C@]2(C)[C@H](C)CC[C@]3(CCC(=O)[C@H]32)[C@@H](C)[C@@H]1O [tiamulin]				0.03 µg/mL (≈ 0.0608 µM)	45 mg/kg	AUC/MIC
C=C[C@]1(C)C[C@@H](OC(=O)CSC(C)(C)CNC(=O)[C@H](N)C(C)C)[C@]2(C)[C@H](C)CC[C@]3(CCC(=O)[C@H]32)[C@@H](C)[C@@H]1O [valnemulin]					6.5 mg/kg	AUC/MIC
